A short description of data set [1]: Long-term plasma exposure after a single SC ANA dose (56-day follow-up), plasma LC-MS/MS. Particulars: male SD rats, n = 5, 56-day follow-up. The class given is in vivo, Sprague-Dawley rats. As to the method:
To monitor the sustained release of SC ANA in the long term, 10 male SD rats were treated with a single dose of either 7.0 mg/kg (n = 5) or 35.0 mg/kg (n = 5). The rats were purchased from SPF Biotechnology Co. Ltd. (Beijing, China). Animals were acclimated to the test facility for at least three days, during which their general health was checked by veterinary staff or other authorized personnel. Animals were kept in polycarbonate cages containing absorbent corncob bedding, with a maintained temperature range of +20-25 °C and a 12-h light/dark cycle. Animals had access to food and drinking water ad libitum during acclimation and the experiment. At the end of the study, the rats were euthanized by exposure to an increasing concentration of CO2. […] The SC formulation was prepared by dissolving micronized ANA (5 μm particle size) in an oily triglyceride ester of saturated caprylic and capric fatty acids and glycerol (Miglyol® 810 N, IOI Oleo GmbH, Hamburg, Germany). […] To evaluate plasma concentration-time profiles, blood samples were collected from the jugular vein in EDTA tubes and stored at -70 °C until further analysis. […] In the second PK analysis in rats with a longer follow-up time, blood samples were collected at 0, 30 min, 1 […], and 56 d after dosage. SD rat plasma was analyzed for ANA, 3-OH-ANA, and RL603 concentrations by Pharmaron (Beijing, China). ANA, 3-hydroxy-anagrelide (CAS No. 733043-41-9, Cat. No. sc-206647, Santa Cruz Biotechnology, Inc., Dallas, TX), and RL603 (CAS No. 327602-34-6, Cat. No. sc-391661, Santa Cruz Biotechnology, Inc., Dallas, TX) were used as reference items in calibration standards and quality control (QC) samples. The HPLC and the MS/MS (LCMS-8060) instruments were both from SHIMADZU (Kyoto, Japan), and the column used was a Raptor Biphenyl column (2.7 μm, 50 × 2.1 mm, Restek, Bellefonte, PA). The desired serial concentrations of working solutions were achieved by diluting analyte stock solution with 50% acetonitrile in water. […] QC samples at 0.5, 1, 2, 50, and 800 ng/mL were prepared independently of those used for the calibration curves. These QC samples were prepared on the day of analysis in the same way as calibration standards. Carbamazepine (CAS No. 298-46-4, Sigma-Aldrich, St. Louis, MO) was used as an internal standard for all analytes. Altogether, 55 μL of standards, 55 μL of QC samples, and 55 μL of test samples (comprising 50 μL of plasma and 5 μL of blank solution) were added to 200 μL of acetonitrile containing an internal standard mixture to precipitate protein. The samples were then vortexed for 30 seconds. After centrifugation at 4000 × g (+4 °C) for 5 min, the supernatant was diluted threefold with water, and 2 μL of the diluted supernatant was injected into the LC/MS/MS system for quantitative analysis. The transitions were 256.00-198.90 m/z for anagrelide hydrochloride, 272.00-198.95 m/z for 3-hydroxy anagrelide, 216.00-198.95 m/z for RL603, and 237.20-194.10 m/z for carbamazepine. […] Plasma drug concentration-time profiles were drawn by the average plasma concentrations at specific time points using Microsoft Excel (Redmond, WA). […] Certara, Princeton, NJ) software. Averages of each variable were used when PK values were compared.

A short description of data set [2]: PK comparison between three administration routes (IV, PO, SC), plasma LC-MS/MS. The class given is in vivo, Sprague-Dawley rats. The settings on record: for Tmax: male, plasma, read-out: Tmax. The procedure:
The rats were purchased from SPF Biotechnology Co. Ltd. (Beijing, China). Animals were acclimated to the test facility for at least three days, during which their general health was checked by veterinary staff or other authorized personnel. Animals were kept in polycarbonate cages containing absorbent corncob bedding, with a maintained temperature range of +20-25 °C and a 12-h light/dark cycle. Animals had access to food and drinking water ad libitum during acclimation and the experiment. At the end of the study, the rats were euthanized by exposure to an increasing concentration of CO2. […] The SC formulation was prepared by dissolving micronized ANA (5 μm particle size) in an oily triglyceride ester of saturated caprylic and capric fatty acids and glycerol (Miglyol® 810 N, IOI Oleo GmbH, Hamburg, Germany). […] To evaluate plasma concentration-time profiles, blood samples were collected from the jugular vein in EDTA tubes and stored at -70 °C until further analysis. […] In the second PK analysis in rats with a longer follow-up time, blood samples were collected at 0, 30 min, 1 […], and 56 d after dosage. SD rat plasma was analyzed for ANA, 3-OH-ANA, and RL603 concentrations by Pharmaron (Beijing, China). ANA, 3-hydroxy-anagrelide (CAS No. 733043-41-9, Cat. No. sc-206647, Santa Cruz Biotechnology, Inc., Dallas, TX), and RL603 (CAS No. 327602-34-6, Cat. No. sc-391661, Santa Cruz Biotechnology, Inc., Dallas, TX) were used as reference items in calibration standards and quality control (QC) samples. The HPLC and the MS/MS (LCMS-8060) instruments were both from SHIMADZU (Kyoto, Japan), and the column used was a Raptor Biphenyl column (2.7 μm, 50 × 2.1 mm, Restek, Bellefonte, PA). The desired serial concentrations of working solutions were achieved by diluting analyte stock solution with 50% acetonitrile in water. […] These QC samples were prepared on the day of analysis in the same way as calibration standards. Carbamazepine (CAS No. 298-46-4, Sigma-Aldrich, St. Louis, MO) was used as an internal standard for all analytes. Altogether, 55 μL of standards, 55 μL of QC samples, and 55 μL of test samples (comprising 50 μL of plasma and 5 μL of blank solution) were added to 200 μL of acetonitrile containing an internal standard mixture to precipitate protein. The samples were then vortexed for 30 seconds. After centrifugation at 4000 × g (+4 °C) for 5 min, the supernatant was diluted threefold with water, and 2 μL of the diluted supernatant was injected into the LC/MS/MS system for quantitative analysis. The transitions were 256.00-198.90 m/z for anagrelide hydrochloride, 272.00-198.95 m/z for 3-hydroxy anagrelide, 216.00-198.95 m/z for RL603, and 237.20-194.10 m/z for carbamazepine. […] Plasma drug concentration-time profiles were drawn by the average plasma concentrations at specific time points using Microsoft Excel (Redmond, WA). […] Certara, Princeton, NJ) software. Averages of each variable were used when PK values were compared.

The mark [3] stands for this setting: analyte in plasma after single SC ANA dose 7 mg/kg.
Where [4] appears, read: analyte in plasma after single SC ANA dose 35 mg/kg.
Where [5] appears, read: Sprague-Dawley, rat, analyte in plasma after single ANA dose 0.5 mg/kg IV, male SD rats, n = 3, mean ± SD.
The mark [6] stands for this setting: Sprague-Dawley, rat, analyte in plasma after single ANA dose 2.5 mg/kg PO, male SD rats, n = 3, mean ± SD.
The mark [7] stands for this setting: Sprague-Dawley, rat, analyte in plasma after single SC ANA dose 7 mg/kg.
The mark [8] stands for this setting: Sprague-Dawley, rat, analyte in plasma after single SC ANA dose 35 mg/kg.

This is an account of results in publication PMC11816618, “Pharmacokinetic profile and in vivo anticancer efficacy of anagrelide administered subcutaneously in rodents” (Drug Delivery, 2025).

For orientation: Cmax means the highest concentration seen after dosing. As a reminder, the Tmax is the time at which the peak concentration occurs. In the case of `O=C1NC2=Nc3ccc(Cl)c(Cl)c3CN2C1O` (centres unmarked) [3-Hydroxy-anagrelide, 3′-hydroxy-anagrelide], in data set [1] (setting [3]), the AUCinf came out at 699.77 ± 705.45 ng·h/mL, the AUClast was determined as 86.57 ± 60.96 ng·h/mL, the maximum concentration (Cmax) stood at 0.46 ± 0.09 ng/mL and the T1/2 is 1099 ± 945.8 h. In addition, in data set [1] (setting [3]), the Tmax worked out at 19.00 ± 35.34 h. For the same molecule, in data set [1] (setting [4]), the AUCinf amounted to 2492.52 ± 2459.44 ng·h/mL, the AUClast is 563.51 ± 106.90 ng·h/mL, the maximum concentration (Cmax) came out at 1.75 ± 0.61 ng/mL and the T1/2 is 377.8 ± 200 h. In data set [1] (setting [4]), the time of peak concentration (Tmax) worked out at 46.00 ± 95.07 h.
A word on the half-life: it is how long it takes for the measured level to halve. A low value points to fast loss. A word on the AUC(0-inf): it is the area under the concentration-time curve extrapolated to infinity. In general, AUC(0-t) refers to the area under the concentration-time curve up to a stated or last time point. Low readings indicate low exposure, high ones high exposure. Consider `NC1=Nc2ccc(Cl)c(Cl)c2CN1` [RL603, 2‐amino‐5,6‐dichloro‐3,4‐dihydroquinazolin], for which the Cmax in data set [2] (setting [5]) worked out at 12.3 ± 2.85 ng/mL; in data set [2] (setting [6]), 3.48 ± 1.01 ng/mL; in data set [1] (Sprague-Dawley, rat, analyte in plasma after single SC ANA dose 7 mg/kg, read-out: Cmax) it was 1.08 ± 0.26 ng/mL; in data set [1] (Sprague-Dawley, rat, analyte in plasma after single SC ANA dose 35 mg/kg, read-out: Cmax), 2.4 ± 1.28 ng/mL. For the same molecule, the half-life in data set [2] (setting [5]) was 0.98 ± 0.24 h; in data set [2] (setting [6]), 13.1 ± 5.29 h; in data set [1] (setting [7]), 895 h; in data set [1] (setting [8]) it was 285 h. Moreover, the AUC(0-inf) in data set [2] (setting [6]) came out at 34.8 ± 9.94 ng·h/mL; in data set [1] (setting [7]), 1530 ± 1540 ng·h/mL; in data set [1] (setting [8]), 2280 ± 1210 ng·h/mL. For the same molecule, the results for the AUC(0-t) in data set [2] (setting [6]), in data set [1] (setting [7]) and in data set [1] (setting [8]) were 24.9 ± 4.29 ng·h/mL, 351 ± 85.7 ng·h/mL and 925 ± 141 ng·h/mL, respectively. For the same molecule, in data set [2] (after SC ANA 1.0 mg/kg, SD rats), the “plasma concentration (not detected above the quantifiable limit)” value is reported as less than 0.2 ng/mL. Besides, the time to peak (Tmax) in data set [2] (Sprague-Dawley, rat, iv, 0.5 mg/kg, analyte in plasma after single ANA dose 0.5 mg/kg IV, male SD rats, n = 3, mean ± SD) came to 1 ± 0.87 h; in data set [2] (Sprague-Dawley, rat, po, 2.5 mg/kg, analyte in plasma after single ANA dose 2.5 mg/kg PO, male SD rats, n = 3, mean ± SD), 1.67 ± 0.58 h; in data set [1] (Sprague-Dawley, rat, analyte in plasma after single SC ANA dose 7 mg/kg, read-out: Tmax), 19.6 ± 9.84 h; in data set [1] (Sprague-Dawley, rat, analyte in plasma after single SC ANA dose 35 mg/kg, read-out: Tmax), 92.8 ± 113 h.
